Data taken from patent US11549123B2, “Plant EPSP synthases and methods of use” (PIONEER HI-BRED INTERNATIONAL, INC., priority 2015, dated 2023).
Numbering of substitutions follows the chain as printed. Where “and” joins values, the source holds several entries; their conditions need not be identical. Equal values may be shown once.

What was measured:
[1] = biological target: T1, Zea mays EPSPS variant P107L (Zea mays, UniProt O24566, P106L); test: EPSPS substrate saturation kinetics, P107L
T1 sequence (O24566 with tags, fused parts or gaps P106L): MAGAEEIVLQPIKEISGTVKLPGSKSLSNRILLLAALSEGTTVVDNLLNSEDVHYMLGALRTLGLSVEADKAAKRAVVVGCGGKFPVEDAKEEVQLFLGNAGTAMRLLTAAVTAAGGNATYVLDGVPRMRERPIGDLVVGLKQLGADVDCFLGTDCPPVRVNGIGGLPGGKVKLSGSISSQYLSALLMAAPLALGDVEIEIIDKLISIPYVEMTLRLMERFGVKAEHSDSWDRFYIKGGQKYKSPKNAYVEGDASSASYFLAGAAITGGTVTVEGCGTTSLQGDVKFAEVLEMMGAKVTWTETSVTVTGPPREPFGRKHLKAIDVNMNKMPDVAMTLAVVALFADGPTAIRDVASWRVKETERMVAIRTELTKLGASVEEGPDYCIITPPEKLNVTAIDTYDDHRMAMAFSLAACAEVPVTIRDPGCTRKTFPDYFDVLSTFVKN
Method: EPSPS activity was determined by quantifying the phosphate generated from the EPSPS reaction. Release of inorganic phosphate was coupled to reaction with 2-amino-6-mercapto-7-methylpurine ribonucleoside, catalyzed by purine-nucleoside phosphorylase (M R Webb, Proc. Natl. Acad. Sci. 89:4884-4887, 1992). The absorbance change that occurs was monitored at 360 nm, where the extinction is 11,200 M^−1 cm^−1, with a Spectramax plate reader (Molecular Devices). To determine kinetic parameters, the varied substrate was present at seven concentrations (the eighth being the blank, containing no substrate) ranging from 4 to 400 uM and the unvaried substrate present at saturation. Six microliters of 50-fold concentrated stock solutions of the varied substrate were placed in the wells of the 96-well assay plate and reactions were started with the addition of a mixture containing 25 mM Hepes, pH 7, 100 mM KCl, 0.3 mM 2-amino-6-mercapto-7-methylpurine ribonucleosde, 1 uM (1 unit/ml) purine-nucleoside phosphorylase (Sigma N8264) and 200 uM of the non-varied substrate. Reactions were monitored with a Spectramax plate reader. The Michaelis-Menten kinetics protocol of the Spectramax software was customized for the substrate concentrations used. The software returns values of KM and Vmax using the Lineweaver-Burke transformation of the Michaelis-Menten equation. To determine kcat, Vmax (uM/min) was divided by the enzyme concentration (uM). […] KI was then calculated from the following form of the Michaelis-Menten equation for competitive inhibition: KI=KM[I]/(KM app−KM) KM approximates the dissociation constant of the enzyme-substrate complex while kcat is the rate of conversion of substrate to product when the substrate concentration is saturating. kcat/KM is a widely accepted parameter for catalytic efficiency when substrate concentration is low (˜KM). […] The parameter kcat/KM×KI is used to quantify both catalytic efficiency and insensitivity and thus the overall fitness of the enzyme.

[2] = biological target: T2, Zea mays (maize) EPSPS, native, SEQ ID NO:1 (Table 10: SEQ ID NO:2) (Zea mays, UniProt O24566); test: EPSPS substrate saturation kinetics (PEP varied, glyphosate inhibition), native maize; format: biochemical
T2 sequence (O24566 with tags, fused parts or gaps): T1 sequence (O24566 with tags, fused parts or gaps P106L) with L107P
Excerpt: The amino acid sequence of mature Zea mays EPSP synthase (EPSPS) was obtained from GenBank entry CAA44974.1 (NCBI GI No. 1524383; presented herein as SEQ ID NO:2). A nucleotide sequence was created to add an N-terminal methionine and to optimize codon usage for expression in E. coli. The synthetic gene was supplied by a commercial vendor. The gene was cloned into an expression vector that provides a T7 promoter driving expression of the protein. The vector was modified to change a 6×N-terminal histidine tag to a 10×tag. The resulting coding region of the vector yields an expressed protein with the amino acid sequence shown in Table 1 (represented by SEQ ID NO:1). The coding region is preceded by an N-terminal extension represented by SEQ ID NO:3.
Whether protein production was done in BL21(DE3) or with the Tuner AroA knockout, the vector was electroporated into cells and transformants were selected for growth on LB agar containing 100 ug carbennicillin/ml. Cells were grown in Magic Medium, in which induction occurs when the medium becomes depleted of glucose. After 4 hours of growth at 37° C., cells were transferred to 30° C. and grown another 16 hrs. Pelleted cells were lysed with BPER (Pierce) protein extraction reagent containing 0.2 mg/ml lysozyme, 1 mM dithiothreitol, protease inhibitor cocktail (Sigma, bacterial cocktail) and endonuclease. Insoluble cellular debris was removed by centrifugation. EPSPS protein was purified from the soluble protein solution by affinity chromatography on the nickel form of nitrilotriacetic acid (Ni-NTA) resin (Qiagen). Protein concentration was measured by absorbance at 280 nm using an extinction coefficient of 0.676 OD/mg/ml, provided by Vector NTI.
Shikimate-3-phosphate (S3P) was prepared from cultures of Klebsiella pneumonia aroA-(ATCC 25597). Cells from a 500 ml culture grown in 2×YT were used to inoculate 6 L of minimal medium augmented with 55 uM tyrosine, 60 uM phenylalanine, 25 uM tryptophan, 0.1 uM 4-aminobenzoate and 0.1 uM 4-hydroxybenzoate (Weiss et al., 1953. J Amer Chem Soc 75:5572-5576). Accumulation of S3P was monitored by anion exchange HPLC. After about 4 days shaking at 37 C, the concentration reached ˜1 mM. S3P was purified from the culture supernatant by anion exchange chromatography in ammonium bicarbonate at pH 7.3, with gradient elution up to 0.7 M. S3P was cleanly separated from phosphate, which eluted earlier.
EPSPS activity was determined by quantifying the phosphate generated from the EPSPS reaction. Release of inorganic phosphate was coupled to reaction with 2-amino-6-mercapto-7-methylpurine ribonucleoside, catalyzed by purine-nucleoside phosphorylase (M R Webb, Proc. Natl. Acad. Sci. 89:4884-4887, 1992). The absorbance change that occurs was monitored at 360 nm, where the extinction is 11,200 M^−1 cm^−1, with a Spectramax plate reader (Molecular Devices). To determine kinetic parameters, the varied substrate was present at seven concentrations (the eighth being the blank, containing no substrate) ranging from 4 to 400 uM and the unvaried substrate present at saturation. […] Reactions were monitored with a Spectramax plate reader. […]

[3] = PEP as substrate, glyphosate as inhibitor

Compound | kcat/KM ([1]; PEP) [min^−1uM^−1] | kcat ([1]; PEP varied) [s⁻¹] | kcat ([2]; PEP varied, S3P saturating, pH 7) [min⁻¹] | kcat ([2]; Table 3, unit not given) | Km ([2]; read-out: KM (PEP), Table 3, unit inferred) [µM] | Ki ([1]; KI (glyphosate), competitive with PEP) [µM] | Ki ([1]; Ki, substrate saturation, Zm-P107L) [µM] | (kcat/KM)*KI [1, 3] | (kcat/KM)*KI ([1]; substrate saturation, Zm-P107L) | Ki [2] [µM] | (kcat/KM)*KI [2, 3]
C=C(OP(=O)(O)O)C(=O)O [PEP, phosphoenolpyruvate] | 22.1 | 24.2 | 1464 | 1464 | 15.7 |  |  |  |  |  | 
O=C(O)CNCP(=O)(O)O [glyphosate, N-phosphonomethylglycine] |  |  |  |  |  | 3.6 | 3.05 | 79 | 70 | 0.13 | 11.8 and 12
